The text below walks through data of patent publication US12616759B2, “Uses of labeled HSP90 inhibitors” (Sloan-Kettering Institute for Cancer Research, priority 2011, dated 2026).

Structures are written as SMILES.

The test system of data set [1] is oncogenic HSP90. Briefly: PU-H71-FITC2 binding to pancreatic and breast cancer cell lines relative to HL-60 versus viability.
In data set [2] the test system is oncogenic HSP90. Briefly: PU-FITC binding to EpCAM+ circulating tumor cells in PBMCs. It is filed as cell-based, human. The settings on record: CTCs, patient with HER2+ metastatic breast cancer. How it is done:
FIGS. 20A and 20B. PU-H71-FITC2 accumulation in EpCAM+ Circulating Tumor Cells: PBMC's isolated from whole blood were pre-treated with PU-FITC or controls (PU-FITC9, DMSO, 1 μM/2×10^6 cells/ml, 4 hrs). Cells were then stained with CD45, CD14 and EpCAM antibodies. FIG. 20A Cells are gated to exclude dead cells. Viable cells are then gated to determine EpCAM+vs CD45+ cells. Monocytes are excluded from the analysis by gating the CD45+ cells further as FSC vs. CD14. FIG. 20B Histogram plots showing the PU-FITC Median florescence intensity (MFI) of CD45+CD14− cells (blue) and EpCAM+ cells (Red). The drug accumulation in EpCAM+ cells is calculated as the ratio of MFI EpCAM+/MFI CD45+CD14− (circulating tumor cells/leukocytes) after subtracting the values of the DMSO and PU-FITC9 controls (used to control for non-specific and background binding).
Measure PU-FITC binding to EpCAM+ circulating tumor cells in PBMC's: All experimental blood sampling procedures were performed under the Institutional Review Board-approved protocols at Memorial Sloan Kettering Cancer Center. […] PBMC's are isolated on ficoll gradients, cells are counted and viability determined by trypan blue dye exclusion assay. PBMC's are spun down and re-suspended to 2×10^6 cells/ml. […] Values are calculated as a ratio of the MFI of Tumor (EpCAM+CD45−CD14−): MFI of EpCAM-CD45+CD14− cells. […]

Data set [3] has as its system MV4-11 and MOLM-13 cells. Briefly: fluorescent PU-H71 derivatives in AML cell lines: flow cytometry, viability.
In data set [4] the test system is oncogenic HSP90. Briefly: PU-H71-FITC2 binding to primary leukemia blasts relative to normal lymphocytes, flow cytometry. It counts as cell-based, human. Particulars: blast crisis CML cells. As to the method: Cell viability was analyzed by flow cytometry (BD Biosciences). […] Cells were washed and then analyzed by flow cytometry. Normal mouse IgG2a-PE was used as isotype control.
Analysis is performed using FlowJo software.
A general note: Flow cytometry measures light scatter and fluorescence of single cells or particles in a stream.

A short description of data set [5]: in vivo. The settings on record: 3×Tg AD, mouse.
Data set [6] concerns HSP70. Briefly: HSP70 induction in hippocampus of 3×Tg AD mice. The settings on record: i.p., 24 h. It is filed as in vivo. How it is done:
FIGS. 43A, 43B, and 43C. 8-10 mo 3×Tg mice were administered 75 mg/kg (FIG. 43A) or the indicated dose of the HSP90 inhibitor PU-HZ151 (FIG. 43B) and the PD marker, HSP70, was measured in hippocampus, an afflicted brain region in this model of AD, at 24 h post-administration. HSP70 is induced when HSP90 is inhibited and its induction is an indicator that therapeutic levels of the HSP90 inhibitor were delivered to the brain region of interest. FIG. 43C: Levels of the HSP90 inhibitor in the indicated brain regions and plasma were determined by LC-MS/MS after the administration of 50 mg/kg PU-HZ151. Hsp90 inhibitor levels at different times after single ip injection are shown in micromolar units. Brain exposure was also measured as the area under the curve (AUC).
Pharmacodynamic analyses. For protein analysis, selected brain region (hippocampus) was homogenized in SDS lysis buffer (50 mM Tris pH 7.4, 2% SDS) and subjected to Western blot analysis. Levels of proteins were be analyzed by immunoblotting with anti-Hsp70 and Hsp90 antibodies.

`CC(C)N(CCCn1c(Sc2cc3c(cc2I)OCO3)nc2c(N)ncnc21)C(=S)Nc1ccc(-c2c3ccc(=O)cc-3oc3cc(O)ccc23)c(C(=O)O)c1` [PU-H71-FITC2]: the “binding to HL-60 leukemia cells” value in data set [1] is “low to no binding”. In data set [2], the “fold more bound by tumor cells than leukocytes (CD45+CD14− cells)” value is given as “around 84 fold”. Moreover, the “permeation of live cells and target binding” value in data set [3] (1 μM) was “permeate live cells and bind to the target”. For the same molecule, the “effect on viability of leukemia cells” value in data set [3] (MOLM-13, 1 μM, 24 h) is “reduce the viability of leukemia cells”. For the same molecule, the “binding relative to normal lymphocytes” value in data set [4] is reported as “over 4 fold”.

As to `CC(C)(C)CNCCn1c(Sc2cc3c(cc2I)OCO3)nc2c(N)ncnc21` [PU-HZ151], the Kp in data set [5] was determined as 2.5. Further, the “lowest administered dose with significant induction of HSP70” value in data set [6] worked out at 10 mg/kg.
